According to the supplement of paper PMC10883282:

How the values were obtained:
Experiment in all cases: relative viability vs DMSO control (72 h) (fraction); higher = more viable cells
HT1080 = test system: HT1080
Summary of the method: (§1)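 Relative viability is percent growth read by ATPLite and averaged over up to triplicate wells. Sarcoma cells were seeded in 384-well plates to reach 80–90% confluence and given 2.5 µl of serially diluted compound after 24 h, from source plates of 10 mM to 0.0002 mM. Incubation lasted 72 h at 37 °C, 5% CO2, with 0.1% DMSO vehicle and a 5 µM positive control, and the data were rescaled so 1 equals full and 0 equals none.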

KHOS-240S = test system: KHOS-240S
Summary of the method: as §1

RD-ES = test system: RD-ES
Summary of the method: as §1

SW1353 = test system: SW1353
Summary of the method: as §1

SW982 = test system: SW982
Summary of the method: as §1

COC(=O)[C@@]1(O)C[C@H]2O[C@]1(C)n1c3ccccc3c3c4c(c5c6ccccc6n2c5c31)C(=O)NC4 [K-252a]
relative viability
Details | HT1080 | KHOS-240S | RD-ES | SW982 | SW1353
0.00017 µM | 1.09 | 1.06 | 0.991 | 1.05 | 1.037
0.00051 µM | 1.09 | 1.05 | 1.02 | 1.064 | 1.033
0.00152 µM | 1.09 | 1.08 | 1.01 | 1.079 | 1.03
0.00457 µM | 1.09 | 1.06 | 1.02 | 1.07 | 1
0.01372 µM | 1.16 | 1.05 | 0.979 | 1.02 | 0.964
0.04115 µM | 1.13 | 0.998 | 0.797 | 0.733 | 0.892
0.1235 µM | 1.05 | 0.815 | 0.578 | 0.559 | 0.814
0.3704 µM | 1.13 | 0.553 | 0.488 | 0.443 | 0.772
1.111 µM | 0.683 | 0.346 | 0.175 | 0.2914 | 0.528
3.333 µM | 0.105 | 0.258 | 0.0819 | 0.151 | 0.294
10 µM | 0.0141 | 0.0419 | 0.0303 | 0.0215 | 0.0167

CN1CCN(c2ccc(C(=O)Nc3n[nH]c4ccc(Cc5cc(F)cc(F)c5)cc34)c(NC3CCOCC3)c2)CC1 [Entrectinib]
relative viability
Details | HT1080 | KHOS-240S | RD-ES | SW982 | SW1353
0.00017 µM | 1.095 | 1.06 | 0.991 | 1.03 | 1.04
0.00051 µM | 1.13 | 1.061 | 1.02 | 1.05 | 1.05
0.00152 µM | 1.1 | 1.1 | 0.986 | 1.05 | 1.01
0.00457 µM | 1.08 | 1.08 | 0.986 | 1.07 | 1.01
0.01372 µM | 1.08 | 1.08 | 0.992 | 1.05 | 0.976
0.04115 µM | 1.09 | 1.07 | 0.997 | 1.06 | 0.985
0.1235 µM | 1.08 | 1.08 | 0.99 | 1.06 | 0.9886
0.3704 µM | 1.06 | 1 | 0.929 | 0.991 | 0.9517
1.111 µM | 1.06 | 0.939 | 0.776 | 0.865 | 0.953
3.333 µM | 0.952 | 0.617 | 0.552 | 0.548 | 0.782
10 µM | 0.349 | 0.0159 | 0.0781 | 0.0591 | 0.0075

COC(=O)N[C@@H](C)CNc1nccc(-c2cn(C(C)C)nc2-c2cc(Cl)cc(NS(C)(=O)=O)c2F)n1 [Encorafenib]
relative viability
Details | HT1080 | KHOS-240S | RD-ES | SW982 | SW1353
0.00017 µM | 1.06 | 0.998 | 0.93 | 0.94 | 1.06
0.00051 µM | 1.09 | 0.986 | 0.95 | 0.946 | 1.09
0.00152 µM | 1.07 | 1.01 | 0.973 | 0.887 | 1.1
0.00457 µM | 1.08 | 0.993 | 0.956 | 0.877 | 1.08
0.01372 µM | 1.09 | 0.964 | 0.935 | 0.853 | 1.086
0.04115 µM | 1.08 | 0.981 | 0.94 | 0.828 | 1.08
0.1235 µM | 1.06 | 0.991 | 0.905 | 0.798 | 1.07
0.3704 µM | 1.08 | 0.97 | 0.91 | 0.704 | 1.1
1.111 µM | 0.885 | 0.904 | 0.707 | 0.489 | 0.966
3.333 µM | 0.715 | 0.788 | 0.462 | 0.327 | 0.767
10 µM | 0.765 | 0.732 | 0.565 | 0.308 | 0.739

CC(C)NC[C@@H](C(=O)N1CCN(c2ncnc3c2[C@H](C)C[C@H]3O)CC1)c1ccc(Cl)cc1 [Ipatasertib]
relative viability
Details | HT1080 | KHOS-240S | RD-ES | SW982 | SW1353
0.00017 µM | 1.1 | 1.06 | 0.9447 | 0.991 | 1.04
0.00051 µM | 1.08 | 1.04 | 0.932 | 0.985 | 1.05
0.00152 µM | 1.1 | 1.05 | 0.954 | 1.02 | 1.03
0.00457 µM | 1.05 | 1.05 | 0.9221 | 1 | 1.02
0.01372 µM | 1.07 | 1.06 | 0.925 | 0.945 | 0.991
0.04115 µM | 1.04 | 0.991 | 0.869 | 0.949 | 0.93
0.1235 µM | 1.1 | 1.01 | 0.844 | 0.962 | 0.935
0.3704 µM | 1.07 | 0.938 | 0.7432 | 0.881 | 0.862
1.111 µM | 1.055 | 0.87 | 0.601 | 0.824 | 0.864
3.333 µM | 0.997 | 0.823 | 0.52 | 0.745 | 0.781
10 µM | 0.994 | 0.703 | 0.4354 | 0.652 | 0.727
